Measurements as given in patent US8440893B2, “Therapeutic agent for rheumatoid arthritis” (St. Marianna University School of Medicine, priority 2006, dated 2013).

Assays:
[1] = test system: osteoclast precursor cells; test: Osteoclast differentiation (TRAP staining of TRAP-positive multinucleated giant cells); type: cell-based; conditions: medium only 78
Experimental: An osteoclast precursor cell culture kit (Cell Garage Co. Ltd.) was used to observe the effect of C60 on the differentiation of osteoclast precursor cells to mature osteoclasts.
Using the above-mentioned osteoclast precursor cell culture kit, osteoclast precursor cells were cultured on a chamber slide in the presence of osteoclast differentiation-inducing factors. C60 was added to the medium at a final concentration of 0.1, 1.0, or 10.0 μM, and the cells were cultured for seven days. The medium, including various additional factors, was changed to a fresh one every three days. On the seventh day, TRAP-positive multinucleated giant cells, which serve as an index of osteoclast differentiation, were observed by TRAP staining (Cell Garage AK04 Lot: FEM).
The TRAP staining method was carried out as follows. First, after confirming the formation of osteoclasts, the culture solution was removed, and the cells were washed with PBS at 100 μL/well. Next, a fixative solution (kit) was added at 50 μL/well and reacted for five minutes at room temperature. Then, the fixative solution was removed, and the cells were subjected to three washes using 250 μL/well of deionized distilled water (DDW). One vial of chromogenic substrate was dissolved by adding 5 mL of buffer to prepare a color developing solution. The above color developing solution was added at 50 μL/well and then incubated at 37° C. for 20 minutes. After confirming the color development, the color developing solution was removed, and the reaction was stopped using 250 μL/well of DDW. After washing with DDW three times in total, the wells were removed, and the slide was mounted with a water-soluble mounting medium (NUNK 178599 16-well chamber slides were used).
(§1) SOD (final concentration: 10 or 100 μM) or vitamin C (final concentration: 10 or 100 μM) was added to DMEM medium. The level of inflammatory cytokines produced by macrophages and the osteoclast differentiation ability were measured by the methods of Examples 1-3 and 2-2 described above, respectively, and compared to the results obtained with C60 (10 μM) (Table 1).

macrophages = test: Inflammatory cytokine production (ELISA), macrophages; type: cell-based, human; conditions: for Concentration of cytokines produced by macrophage, IL-1β: medium only 8.1; for Concentration of cytokines produced by macrophage, TNF-α: medium only 122
Experimental: After obtaining informed consent, 50 mL of blood was collected from healthy individuals, and 1% heparin-added blood was acquired. Centrifuge tubes in which this blood was layered on top of a lymphocyte separation liquid were centrifuged at 1500 rpm for 30 minutes to isolate lymphocytes and macrophages individually. The cells were cultured using an RPMI medium supplemented with inactivated fetal bovine serum (FBS, manufactured by TRACE) at 10% of the medium volume, and also with 2 mM L-glutamine, 25 mM HEPES, and 100 units/mL of penicillin and streptomycin, in a CO2 incubator set at 5% CO2+95% air (normoxic conditions) at 37° C. under saturated humidity.
Effects of C60 on the production of inflammatory cytokines in each type of cell were analyzed using the enzyme-linked immunosorbent assay method (ELISA).
Each type of cell that was isolated and cultured to subconfluency by the above method was seeded into a 24-well culture plate at 1×10^5 cells/well. After culturing for 12 hours, the cells were washed with PBS, the medium was exchanged to fresh DMEM containing 10% FBS, and tumor necrosis factor TNF-α was added. The concentration of C60 treatment was 0.1, 1.0, or 10.0 μM, and the concentration of TNF-α treatment was 10.0 ng/mL. Each type of cell was cultured with C60 for 24 hours in the presence or absence of TNF-α, and then the culture solution was collected.
The concentrations of inflammatory cytokines TNF-α and interleukin (IL)-1β in the culture supernatant were determined using a ELISA kit, which is a standard technique currently known in the art. The ELISA was performed by the following standard method: the diluted culture supernatant sample was added into a sensitized plate at 100 μl per well, and the plate was left still for one hour at room temperature (primary reaction). After the primary reaction, the wells were sufficiently washed with PBS using a wash bottle four times or more. Horseradish peroxidase (HRP)-labeled goat anti-rabbit IgG (H+L) antibodies that have been diluted 3,000-folds with 0.1% Tween20-PBS were dispensed into the respective wells at 100 μl each, and the plate was left still for one hour at room temperature (secondary reaction). After the secondary reaction, the wells were washed with PBS in the same manner, and then 0.8 mM TMB (Tetramethylbenzidine) solution was added thereto at 100 μl per well, to effect color development at 30° C. for five to 20 minutes (color reaction). 100 μl of 1.5 N H3PO4 was added to each well to stop the color reaction, and the absorbance at 450 nm was measured using a microtiter plate reader. According to the instructions provided by the manufacturer, the measured concentrations were calibrated using a lyophilized control reagent.
as §1

[2] = Antioxidative ability (kit utilizing the redox reaction of copper); type: biochemical
Experimental: Various concentrations of C60, SOD, and vitamin C solutions were prepared (solvent: DEME medium, SOD (10, and 100 μM), C60 (1, 10, and 100 μM), vitamin C (100 μM)), and the antioxidative ability of each was determined using a kit for measuring antioxidative ability (OXIS Health Product, Oregon, USA) which utilizes the redox reaction of copper.

Compound | Osteoclast differentiation ([1]; added antioxidant 10 μM) | Osteoclast differentiation ([1]; added antioxidant 100 μM) | Concentration of cytokines produced by macrophage, IL-1β (macrophages; added antioxidant 10 μM) [ng/ml/1 × 10^5 cells] | Concentration of cytokines produced by macrophage, TNF-α (macrophages; added antioxidant 10 μM) [ng/ml/1 × 10^5 cells] | Concentration of cytokines produced by macrophage, IL-1β (macrophages; added antioxidant 100 μM) [ng/ml/1 × 10^5 cells] | Concentration of cytokines produced by macrophage, TNF-α (macrophages; added antioxidant 100 μM) [ng/ml/1 × 10^5 cells] | ratio to the antioxidative ability of vitamin C (100 μM) ([2]; substance at 10 μM) | ratio to the antioxidative ability of vitamin C (100 μM) ([2]; substance at 100 μM)
O=C1O[C@H]([C@@H](O)CO)C(O)=C1O [Vitamin C, vitamin C] | 94 TRAP-positive multinucleated giant cells/well | 82 TRAP-positive multinucleated giant cells/well | 6.9 | 116 | 7.5 | 115 | – | –
Superoxide dismutase [SOD] | 82 TRAP-positive multinucleated giant cells/well | 75 TRAP-positive multinucleated giant cells/well | 9.0 | 130 | 7.8 | 106 | approximately two-fold | approximately 8 fold
